# Laboratory results: patent publication US20250339531A1, “DUX4 POLYPEPTIDES AND NUCLEIC ACIDS FOR TREATING INFLAMMATORY AND AUTOIMMUNE CONDITIONS” (Fred Hutchinson Cancer Center, priority 2021, published 2025)
# Tests used:
# [1] = test system: de novo protein synthesis; experiment: HPG Click-iT labeling of nascent proteins; format: cell-based, human; conditions: FSHD myotubes and SuSa cells co-stained for H3.X/Y
# Protocol: Cells were incubated for 30 minutes in DMEM or RPMI media depleted for methionine and cysteine (Gibco), followed by a 1-hour incubation in methionine-depleted media supplemented with 200 μM HPG (Sigma). Cells were fixed with 4% paraformaldehyde (Electron Microscopy Sciences) diluted in PBS for 10 minutes at room temperature and stained with Click-iT HPG Alexa Fluor 488 Protein Synthesis Assay Kit (Invitrogen) according to manufacturer's protocol.
# IDO1 = experiment: Immunofluorescence of IFNG-induced IDO1 in FSHD MB200 myotubes; format: cell-based, human; conditions: DUX4-positive versus DUX4-negative FSHD myotubes
# Protocol: All myoblast experiments were conducted in immortalized MB135 or MB200 myoblast cell lines (isolated from a control or FSHD2 subject, respectively cultured in Ham's F-10 Nutrient Mix (Gibco) supplemented with 15% fetal bovine serum (Hyclone), 100 U/100 μg/ml penicillin/streptomycin (Gibco), 1 μM dexamethasone (Sigma), and 10 ng/ml recombinant human basic fibroblast growth factor (PeproTech). To differentiate the myoblasts to myotubes, media was changed to DMEM supplemented with 10 μg/ml insulin (Sigma) and 10 μg/ml transferrin (Sigma). Cell lines containing doxycycline-inducible transgenes were additionally cultured with 2 μg/mL puromycin (Sigma). Transgenes were induced with 1 μg/mL of doxycycline (Sigma) for 4 hours prior to other treatments for a total of 20 hrs. The Kitra-SRS cells (RRID:CVCL_YI69) were provided by Dr. H. Otani and Osaka University (Nakai et al., 2019) and were cultured in DMEM supplemented with 10% fetal bovine serum (Hyclone) and 100 U/100 μg/ml penicillin/streptomycin (Gibco). Biological replicates consisted of independent but parallel experiments, such as simultaneously stimulating three cell culture plates with IFNγ. Technical replicates consisted of repeat measurements of the same biological sample, such as loading the same biological sample in triplicate for analysis by RT-qPCR. […]
substance,measurement,setting,value
endogenous DUX4: DUX4 expressed endogenously in FSHD myotubes and SuSa cells,HPG Click-iT signal in cells with endogenous expression,[1],dramatic reduction in HPG Click-iT signal
same,IFNG induction of IDO1,IDO1,sufficient to prevent ISG induction by IFNG
